# In patent US12186319B2, “Crosslinked polymer nanoparticles for targeted cellular uptake and therapeutics, and compositions and methods thereof” (University of Massachusetts, priority 2017, dated 2025):
# Assay: Encapsulation of drug within HA-decorated nanoparticles (FIG. 1, visual)
# Assay type: physicochemical
# Conditions: FIG. 1B/1C, colour of solution
# Method: The dye is however stably encapsulated in crosslinked HA-decorated nanoparticles (right).
# MTX and MMTX encapsulation: A suspension of modified HA (1 mg/mL), crosslinker (2 mg/mL) and Irgacure 2959 (0.5 mg/mL) in water (1 mL) was stirred at RT for 30 mins and purged with argon for 10 mins. To this solution, MTX (100 μL, 6 mg/mL) or MMTX (100 μL, 6 mg/mL) or DMSO 100 μL (control) was added. The reaction mixture was exposed to UV irradiation for 10 min. Afterwards, the free drug was removed by dialyzing the solution against DI water for 48 h and filtered through a hydrophilic membrane (pore size: 0.45 μm). The resulting solution was used to estimate the size of the drug loaded PNPs using dynamic light scattering.
structure (smiles),measurement,value
"CN(Cc1cnc2nc(N)nc(N)c2n1)c1ccc(C(=O)N[C@@H](CCC(=O)O)C(=O)O)cc1 [MTX, Methotrexate]",encapsulation within HA-decorated nanoparticles,no encapsulation is discernible
